Our source for the MIC values is patent publication US20260337172A1, “AMINOPIPERAZINES WITH BROAD SPECTRUM ANTIMICROBIAL ACTIVITY” (The United States Government as represented by the …, priority 2022, published 2026).

≈ marks a conversion by molar mass, not a printed value. Like-named read-outs stand apart in the source and are kept apart here.

The test system of this assay is C. auris. Put plainly: minimum inhibitory concentration, C. auris (Table 3). The format is cell-based, Candida auris. The settings on record: Candidozyma auris. From the text: Table 2 and Table 3 below show the minimum inhibitory concentration values for the synthesized compounds as tested on bacterial strains.
[1] abbreviates: 50% inhibition, first of two values in cell, read-out: minimum inhibitory concentration, C. auris 50% inhib.
The mark [2] stands for this setting: 50% inhibition, second of two values in cell, read-out: minimum inhibitory concentration, C. auris 50% inhib.
Where [3] appears, read: 90% inhibition, first of two values in cell, read-out: minimum inhibitory concentration, C. auris 90% inhib.
Setting [4] is: 90% inhibition, second of two values in cell, read-out: minimum inhibitory concentration, C. auris 90% inhib.

Consider `C[C@@H]1[C@H](O)[C@@H](C)/C=C/C=C/C=C/C=C/C=C/C=C/C=C/[C@H](O[C@@H]2O[C@H](C)[C@@H](O)[C@H](N)[C@@H]2O)C[C@@H]2O[C@](O)(C[C@@H](O)C[C@@H](O)[C@H](O)CC[C@@H](O)C[C@@H](O)CC(=O)O[C@H]1C)C[C@H](O)[C@H]2C(=O)O` [Amphotericin B, reference compound], for which the MIC under setting [1] is 1 µg/mL (≈ 1.08 µM), the MIC under setting [2] amounted to 1 µg/mL (≈ 1.08 µM), the MIC under setting [3] worked out at 1 µg/mL (≈ 1.08 µM) and the MIC under setting [4] was 1 µg/mL (≈ 1.08 µM).

For the compound `CN1CCN(/N=C/c2ccc(Cl)c([N+](=O)[O-])c2)CC1` [Compound 3], the MIC worked out at 256 µg/mL (≈ 905 µM) under setting [1], 128 µg/mL (≈ 453 µM) under setting [2], 256 µg/mL (≈ 905 µM) under setting [3] and 256 µg/mL (≈ 905 µM) under setting [4].

With `CN1CCN(/N=C/c2ccc([N+](=O)[O-])cc2)CC1` [Compound 4], the MIC is 256 µg/mL (≈ 1030 µM) under setting [1], 256 µg/mL (≈ 1030 µM) under setting [2], greater than 256 µg/mL under setting [3] and greater than 256 µg/mL under setting [4].

Turning to `COc1ccc(/C=N/N2CCN(C)CC2)c2ccccc12` [Compound 5, (E)-1-(4-methoxynaphthalen-1-yl)-N-(4-methylpiperazin-1-yl)methanimine], the MIC is, setting by setting: under setting [1], 128 µg/mL (≈ 452 µM); under setting [2], 128 µg/mL (≈ 452 µM); under setting [3], 256 µg/mL (≈ 903 µM); under setting [4], 256 µg/mL (≈ 903 µM).

In the case of `CN1CCN(/N=C/c2ccc(-c3ccccc3)cc2)CC1` [Compound 17], the MIC reads like this: under setting [1], 64 µg/mL (≈ 229 µM); under setting [2], 64 µg/mL (≈ 229 µM); under setting [3], 128 µg/mL (≈ 458 µM); under setting [4], 128 µg/mL (≈ 458 µM).

For the compound `COc1cccc(/C=N/N2CCN(C)CC2)c1O` [Compound 20], the MIC under setting [1] was 128 µg/mL (≈ 513 µM), the MIC under setting [2] was determined as 128 µg/mL (≈ 513 µM), the MIC under setting [3] is 256 µg/mL (≈ 1030 µM) and the MIC under setting [4] is 256 µg/mL (≈ 1030 µM).
